# Assays:
# Assay in all cases: relative viability (nuclei count vs DMSO), 5 days (fraction); higher = more cells survive
# [1] = system: IA-LM
# In short: (§1)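 Lung cancer cell lines in 1536-well plates were dosed by pin tool the day after seeding, either with one drug alone or with a fixed anchor-drug dose plus five library-drug doses (not always all listed) in √10 steps. After 5 days, cells were fixed and their nuclei stained in one step (final 0.05% Triton X-100, 1% formaldehyde, 1 ug/ml Hoechst), then counted on 4× images. Relative viability is the nuclei count in treated wells divided by that in vehicle wells. Values are medians of duplicate plates.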
# [2] = system: A549
# In short: as §1
# [3] = system: NCI-H1299
# In short: as §1
# [4] = system: EKVX
# In short: as §1
# [5] = system: EBC-1
# In short: as §1
# [6] = system: Calu-6
# In short: as §1
# [7] = system: NCI-H1703
# In short: as §1
# [8] = system: LC-2-ad
# In short: as §1
# [9] = system: NCI-H1666
# In short: as §1
# [10] = system: ChaGo-K-1
# In short: as §1
smiles,measurement,setting,value
Nc1cccc2c1CN(C1CCC(=O)NC1=O)C2=O (stereo not drawn) [Lenalidomide] + Cc1nc(NC(=O)N2CCC[C@H]2C(N)=O)sc1-c1ccnc(C(C)(C)C(F)(F)F)c1 [Alpelisib] (partner 2 µM),relative viability,[1]; first compound 0.253 µM,0.716
same,relative viability,[1]; first compound 0.8 µM,0.735
same,relative viability,[1]; first compound 2.53 µM,0.797
same,relative viability,[1]; first compound 8 µM,0.75
same,relative viability,[2]; first compound 0.253 µM,0.789
same,relative viability,[2]; first compound 0.8 µM,0.765
same,relative viability,[2]; first compound 2.53 µM,0.813
same,relative viability,[2]; first compound 8 µM,0.702
same,relative viability,[3]; first compound 0.253 µM,1.03
same,relative viability,[3]; first compound 0.8 µM,1.1
same,relative viability,[3]; first compound 2.53 µM,1.06
same,relative viability,[3]; first compound 8 µM,1.09
same,relative viability,[4]; first compound 0.253 µM,0.803
same,relative viability,[4]; first compound 0.8 µM,0.95
same,relative viability,[4]; first compound 2.53 µM,0.931
same,relative viability,[4]; first compound 8 µM,0.772
same,relative viability,[5]; first compound 0.253 µM,0.787
same,relative viability,[5]; first compound 0.8 µM,0.798
same,relative viability,[5]; first compound 2.53 µM,0.907
same,relative viability,[5]; first compound 8 µM,1.01
same,relative viability,[6]; first compound 0.253 µM,0.945
same,relative viability,[6]; first compound 0.8 µM,0.946
same,relative viability,[6]; first compound 2.53 µM,1.08
same,relative viability,[6]; first compound 8 µM,1.02
same,relative viability,[7]; first compound 0.253 µM,0.253
same,relative viability,[7]; first compound 0.8 µM,0.276
same,relative viability,[7]; first compound 2.53 µM,0.366
same,relative viability,[7]; first compound 8 µM,0.354
same,relative viability,[8]; first compound 0.253 µM,0.86
same,relative viability,[8]; first compound 0.8 µM,0.98
same,relative viability,[8]; first compound 2.53 µM,0.84
same,relative viability,[8]; first compound 8 µM,0.881
same,relative viability,[9]; first compound 0.253 µM,1.04
same,relative viability,[9]; first compound 0.8 µM,0.83
same,relative viability,[9]; first compound 2.53 µM,0.882
same,relative viability,[9]; first compound 8 µM,1.04
Cc1csc(=NC2CCCCC2)n1/N=C/c1ccc(O)c(O)c1O [MIM1] + Cc1nc(NC(=O)N2CCC[C@H]2C(N)=O)sc1-c1ccnc(C(C)(C)C(F)(F)F)c1 [Alpelisib] (partner 2 µM),relative viability,[1]; first compound 0.2 µM,0.829
same,relative viability,[1]; first compound 0.6325 µM,0.805
same,relative viability,[1]; first compound 2 µM,0.644
same,relative viability,[1]; first compound 6.325 µM,0.266
same,relative viability,[1]; first compound 20 µM,0.148
same,relative viability,[2]; first compound 0.2 µM,0.69
same,relative viability,[2]; first compound 0.6325 µM,0.879
same,relative viability,[2]; first compound 2 µM,0.79
same,relative viability,[2]; first compound 6.325 µM,0.56
same,relative viability,[2]; first compound 20 µM,0.102
same,relative viability,[3]; first compound 0.2 µM,1.01
same,relative viability,[3]; first compound 0.6325 µM,1.05
same,relative viability,[3]; first compound 2 µM,1.06
same,relative viability,[3]; first compound 6.325 µM,1.01
same,relative viability,[3]; first compound 20 µM,0.87
same,relative viability,[4]; first compound 0.2 µM,0.924
same,relative viability,[4]; first compound 0.6325 µM,0.91
same,relative viability,[4]; first compound 2 µM,0.934
same,relative viability,[4]; first compound 6.325 µM,0.575
same,relative viability,[4]; first compound 20 µM,0.615
same,relative viability,[5]; first compound 0.2 µM,0.801
same,relative viability,[5]; first compound 0.6325 µM,0.862
same,relative viability,[5]; first compound 2 µM,0.785
same,relative viability,[5]; first compound 6.325 µM,0.531
same,relative viability,[5]; first compound 20 µM,0.296
same,relative viability,[6]; first compound 0.2 µM,0.971
same,relative viability,[6]; first compound 0.6325 µM,1.02
same,relative viability,[6]; first compound 2 µM,0.813
same,relative viability,[6]; first compound 6.325 µM,0.339
same,relative viability,[6]; first compound 20 µM,0.208
same,relative viability,[7]; first compound 0.2 µM,0.329
same,relative viability,[7]; first compound 0.6325 µM,0.34
same,relative viability,[7]; first compound 2 µM,0.352
same,relative viability,[7]; first compound 6.325 µM,0.171
same,relative viability,[7]; first compound 20 µM,0.123
same,relative viability,[8]; first compound 0.2 µM,0.867
same,relative viability,[8]; first compound 0.6325 µM,0.905
same,relative viability,[8]; first compound 2 µM,0.946
same,relative viability,[8]; first compound 6.325 µM,0.527
same,relative viability,[8]; first compound 20 µM,0.116
same,relative viability,[9]; first compound 0.2 µM,0.827
same,relative viability,[9]; first compound 0.6325 µM,0.877
same,relative viability,[9]; first compound 2 µM,0.815
same,relative viability,[9]; first compound 6.325 µM,0.659
same,relative viability,[9]; first compound 20 µM,0.405
CN1CCN(CCOc2cc(OC3CCOCC3)c3c(Nc4c(Cl)ccc5c4OCO5)ncnc3c2)CC1 [Saracatinib] + CC(C)C[C@H](NC(=O)[C@H](Cc1ccccc1)NC(=O)c1cnccn1)B(O)O [Bortezomib] (partner 0.002 µM),relative viability,[1]; first compound 0.02 µM,0.87
same,relative viability,[1]; first compound 0.6325 µM,1.31
same,relative viability,[1]; first compound 2 µM,0.909
same,relative viability,[3]; first compound 0.02 µM,1.05
same,relative viability,[3]; first compound 0.2 µM,1.03
same,relative viability,[3]; first compound 0.6325 µM,1.01
same,relative viability,[3]; first compound 2 µM,1.09
same,relative viability,[4]; first compound 0.02 µM,0.961
same,relative viability,[4]; first compound 0.2 µM,0.861
same,relative viability,[4]; first compound 0.6325 µM,1.16
same,relative viability,[4]; first compound 2 µM,0.347
same,relative viability,[5]; first compound 0.02 µM,0.553
same,relative viability,[5]; first compound 0.2 µM,0.484
same,relative viability,[5]; first compound 0.6325 µM,0.628
same,relative viability,[5]; first compound 2 µM,0.531
same,relative viability,[6]; first compound 0.02 µM,0.939
same,relative viability,[6]; first compound 0.2 µM,0.796
same,relative viability,[6]; first compound 0.6325 µM,0.807
same,relative viability,[6]; first compound 2 µM,0.656
same,relative viability,[7]; first compound 0.02 µM,0.304
same,relative viability,[7]; first compound 0.2 µM,0.314
same,relative viability,[7]; first compound 0.6325 µM,0.293
same,relative viability,[7]; first compound 2 µM,0.22
same,relative viability,[10]; first compound 0.02 µM,1.1
same,relative viability,[10]; first compound 0.2 µM,0.866
same,relative viability,[10]; first compound 0.6325 µM,1.05
same,relative viability,[10]; first compound 2 µM,0.79
same,relative viability,[8]; first compound 0.02 µM,1.15
same,relative viability,[8]; first compound 0.6325 µM,1.12
same,relative viability,[8]; first compound 2 µM,0.843
same,relative viability,[9]; first compound 0.02 µM,0.898
same,relative viability,[9]; first compound 0.2 µM,0.978
same,relative viability,[9]; first compound 0.6325 µM,1.07
same,relative viability,[9]; first compound 2 µM,1.06
Cc1cn(-c2cc(NC(=O)c3ccc(C)c(Nc4nccc(-c5cccnc5)n4)c3)cc(C(F)(F)F)c2)cn1 [Nilotinib] + CC(C)C[C@H](NC(=O)[C@H](Cc1ccccc1)NC(=O)c1cnccn1)B(O)O [Bortezomib] (partner 0.002 µM),relative viability,[1]; first compound 0.001 µM,0.616
same,relative viability,[1]; first compound 0.003162 µM,0.698
same,relative viability,[1]; first compound 0.01 µM,0.685
same,relative viability,[1]; first compound 0.03162 µM,0.808
same,relative viability,[1]; first compound 0.1 µM,0.714
same,relative viability,[3]; first compound 0.003162 µM,1.07
same,relative viability,[3]; first compound 0.01 µM,1.05
same,relative viability,[3]; first compound 0.03162 µM,1.01
same,relative viability,[3]; first compound 0.1 µM,0.933
same,relative viability,[5]; first compound 0.001 µM,0.488
same,relative viability,[5]; first compound 0.003162 µM,0.55
same,relative viability,[5]; first compound 0.01 µM,0.417
same,relative viability,[5]; first compound 0.03162 µM,0.437
same,relative viability,[5]; first compound 0.1 µM,0.241
same,relative viability,[6]; first compound 0.001 µM,0.934
same,relative viability,[6]; first compound 0.003162 µM,1.02
same,relative viability,[6]; first compound 0.01 µM,0.929
same,relative viability,[6]; first compound 0.03162 µM,1.02
same,relative viability,[6]; first compound 0.1 µM,1.01
same,relative viability,[7]; first compound 0.001 µM,0.232
same,relative viability,[7]; first compound 0.003162 µM,0.208
same,relative viability,[7]; first compound 0.01 µM,0.148
same,relative viability,[7]; first compound 0.03162 µM,0.141
same,relative viability,[7]; first compound 0.1 µM,0.125
same,relative viability,[10]; first compound 0.001 µM,1.44
same,relative viability,[10]; first compound 0.003162 µM,1.05
same,relative viability,[10]; first compound 0.01 µM,1.14
same,relative viability,[10]; first compound 0.03162 µM,0.639
same,relative viability,[10]; first compound 0.1 µM,0.898
same,relative viability,[8]; first compound 0.001 µM,0.914
same,relative viability,[8]; first compound 0.003162 µM,1.17
same,relative viability,[8]; first compound 0.01 µM,0.983
same,relative viability,[8]; first compound 0.03162 µM,0.992
same,relative viability,[8]; first compound 0.1 µM,0.527
same,relative viability,[9]; first compound 0.001 µM,0.774
same,relative viability,[9]; first compound 0.01 µM,0.649
same,relative viability,[9]; first compound 0.03162 µM,0.985
same,relative viability,[9]; first compound 0.1 µM,0.829
CCNC(=O)c1noc(-c2cc(C(C)C)c(O)cc2O)c1-c1ccc(CN2CCOCC2)cc1 [Luminespib] + C[C@]1(O)C[C@@H](c2nc(-c3ccc4ccc(-c5ccccc5)nc4c3)c3c(N)nccn32)C1 [Linsitinib] (partner 1 µM),relative viability,[1]; first compound 0.002 µM,0.601
same,relative viability,[1]; first compound 0.006325 µM,0.424
same,relative viability,[1]; first compound 0.02 µM,0.284
same,relative viability,[1]; first compound 0.06325 µM,0.0358
same,relative viability,[1]; first compound 0.2 µM,0.0299
same,relative viability,[2]; first compound 0.002 µM,0.645
same,relative viability,[2]; first compound 0.006325 µM,0.583
same,relative viability,[2]; first compound 0.02 µM,0.236
same,relative viability,[2]; first compound 0.06325 µM,0.14
same,relative viability,[2]; first compound 0.2 µM,0.0621
same,relative viability,[3]; first compound 0.002 µM,0.978
same,relative viability,[3]; first compound 0.006325 µM,0.935
same,relative viability,[3]; first compound 0.02 µM,0.989
same,relative viability,[3]; first compound 0.06325 µM,0.582
same,relative viability,[3]; first compound 0.2 µM,0.451
same,relative viability,[4]; first compound 0.002 µM,1
same,relative viability,[4]; first compound 0.006325 µM,0.989
same,relative viability,[4]; first compound 0.02 µM,0.721
same,relative viability,[4]; first compound 0.06325 µM,0.779
same,relative viability,[4]; first compound 0.2 µM,0.179
same,relative viability,[5]; first compound 0.002 µM,0.919
same,relative viability,[5]; first compound 0.006325 µM,0.89
same,relative viability,[5]; first compound 0.02 µM,0.273
same,relative viability,[5]; first compound 0.06325 µM,0.0912
same,relative viability,[5]; first compound 0.2 µM,0.0942
same,relative viability,[6]; first compound 0.002 µM,1.08
same,relative viability,[6]; first compound 0.006325 µM,0.783
same,relative viability,[6]; first compound 0.02 µM,0.712
same,relative viability,[6]; first compound 0.06325 µM,0.0985
same,relative viability,[6]; first compound 0.2 µM,0.0978
same,relative viability,[7]; first compound 0.002 µM,1.26
same,relative viability,[7]; first compound 0.006325 µM,0.448
same,relative viability,[7]; first compound 0.02 µM,0.426
same,relative viability,[7]; first compound 0.06325 µM,0.0721
same,relative viability,[7]; first compound 0.2 µM,0.123
same,relative viability,[8]; first compound 0.002 µM,0.887
same,relative viability,[8]; first compound 0.006325 µM,0.806
same,relative viability,[8]; first compound 0.02 µM,0.808
same,relative viability,[8]; first compound 0.06325 µM,0.165
same,relative viability,[8]; first compound 0.2 µM,0.129
same,relative viability,[9]; first compound 0.002 µM,0.707
same,relative viability,[9]; first compound 0.006325 µM,0.785
same,relative viability,[9]; first compound 0.02 µM,0.751
same,relative viability,[9]; first compound 0.06325 µM,0.803
same,relative viability,[9]; first compound 0.2 µM,0.511

# — the supplement of paper PMC10307832
